Test results taken from article PMC8073907, “Peptide targeting of lysophosphatidylinositol-sensing GPR55 for osteoclastogenesis tuning” (Cell Communication and Signaling : CCS, 2021).
Like-named read-outs stand apart in the source and are kept apart here. Bridge positions count the residues as written; N and C are the ends. Ends that are not written are not given here.

Legend:
RAW264.7 cells [1] = test: Osteoclast syncytium formation (nuclei/cell); assay type: cell-based, murine; conditions: 150 nM (0.2 µg/mL) peptide, 72 h RANKL
Procedure: (§1) For transient interference of Gpr55, RAW264.7 cells were plated at 6 × 10^5 cells/well in six-well plates in growth medium without antibiotics. Twenty-four hours later, the cells were transfected with 250 pmol/well non-targeting small-interfering (si)RNAs (si-NT; siGENOME siRNA Pool #2; D-001206-14; Dharmacon, Chicago, IL, USA) or Gpr55-specific siRNAs (si-GPR55; siGENOME mouse GPR55 SMART pool; M-043590-01; Dharmacon) using Lipofectamine LTX and Plus Reagent, according to the manufacturer instructions. Twenty-four hours later, the cells were plated for the different assays or for RNA extraction. The efficiency of interference was monitored by real-time PCR after 72 h of interference, using the primers listed in the Additional file 1: Table S1. β2-microglobulin was followed as a housekeeping gene.
For the evaluation of osteoclast syncytium formation, the nuclei of multinucleated cells were counted in a blinded manner using a 63 × objective, moving across the coverslip in the vertical and horizontal directions.
For the osteoclastogenesis in-vitro assay, RAW264.7 cells were plated in differentiation medium (α-MEM with 10% heat-inactivated FBS, 2 mM L-glutamine, 100 U/mL penicillin, and 100 ug/mL streptomycin) at a density of 5 × 10^3 cells/well in 24-well plates on coverslips for morphological analysis, or at 2 × 10^4 cells/well in six-well plates for RNA extraction. […]

[2] = test system: EHEB and DeFew cells (two human B-lymphoblastoid cell lines); conditions: ref [38], cited from earlier work
ssGPR55-K80A = test: GPR55-internalisation assay, K80A mutant (FACS); assay type: cell-based, human; conditions: data not shown
From the text: The construct of haemagglutinin (HA)-tagged human GPR55 in pcDNA3 (HA-GPR55) was a gift from Prof. K. Mackie, Indiana University, Bloomington, IN, USA [39], while the construct ss-3 × HA-GPR55 in pcDNA3.1 (ssGPR55) with a triple HA tag at the N-terminus and an optimised signal sequence (ss, derived from amino acids 1–33 of the human growth hormone: […]) for efficient surface expression was from Prof. A. Irving, Dundee University, UK [40]. For both constructs, mutations were introduced by site-directed mutagenesis using QuickChange kits (Stratagene, La Jolla, CA, USA), according to the manufacturer instructions. The primers for the K80A mutation were 5′-[…]-3′ and 5′-[…]-3′ (Tm, 70.6 °C), and for Q87A were 5′-[…]-3′ and 5′-[…]-3′ (Tm, 73.1 °C).
HeLa cells were plated at 1.5 × 10^5 cells/well in six-well plates in their growth medium without antibiotics. […]
For the GPR55-internalisation assay, after stimulation, the HeLa cells were washed twice with cold HBSS^++, stained while adhered with the monoclonal anti-HA antibody (1:1000) in PBS plus 3% BSA for 1 h on ice, washed three times with cold PBS, incubated with the Alexa488-tagged anti-mouse antibody (1:800) in PBS plus 3% BSA for 45 min on ice. […] The collected cells were centrifuged at 300×g, suspended in PBS plus 3% BSA, and analysed by FACS.

RAW264.7 cells [3] = test: RANKL-induced transcription of osteoclastogenesis markers in RAW264.7 cells (real-time PCR); assay type: cell-based, murine; conditions: 72 h
Procedure: Total RNA was extracted using RNeasy isolation kits, cDNAs were obtained using QuantiTect Reverse Transcription kits, and real-time PCRs were performed with QuantiTect SYBR Green PCR kits (all from Qiagen, Hilden, Germany), according to the manufacturer instructions. The primers used for the real-time PCRs and their annealing temperatures are listed in the Additional file 1: Table S1. Human hypoxanthine phosphoribosyltransferase 1 (HPRT1) or murine β2-microglobulin were followed as housekeeping genes. The real-time PCR programme consisted of an initial 15 min at 95 °C, and then 45 cycles as follows: 94 °C for 15 s, annealing temperature of each primer for 30 s, and 72 °C for 30 s. The real-time PCR machine used was a LightCycler 480 Instrument II (Roche, Indianapolis, IN, USA).
as §1
For the osteoclastogenesis in-vitro assay, RAW264.7 cells were plated in differentiation medium (α-MEM with 10% heat-inactivated FBS, 2 mM L-glutamine, 100 U/mL penicillin, and 100 ug/mL streptomycin) at a density of 5 × 10^3 cells/well in 24-well plates on coverslips for morphological analysis, or at 2 × 10^4 cells/well in six-well plates for RNA extraction. Twenty-four hours later and every 48 h, the medium was replaced and the cells were treated with 15–30 ng/mL RANKL with DMSO and/or PBS as carriers, or with GPR55 antagonists/ agonists (0.5 µM ML-191, 30 µM O1918, 0.5 µM CBD, 0.5 μM CID16020046 1 µM soybean LPI, 1 μM ML-184), or with the peptides (150 nM peptide-P1; or the irrelevant peptide, Irr_P). Twenty-four hours after the last addition, the cells were fixed with 4% paraformaldehyde for morphological analyses or harvested for RNA extraction (see above).

human GPR55 = conditions: ref [38]; cited from earlier work
From the text: GPR55 is overexpressed in several tumour cells, with GPR55 expression shown to correlate with tumour aggressiveness and GPR55 activation to promote cancer-cell proliferation both in cell culture and in xenografts in mice. Therefore, we previously attempted to identify peptides that bind to human GPR55, for innovative targeting of GPR55 for potential therapeutic and/or diagnostic applications. Osteoclasts are also among the cells with the highest expression of GPR55 [9], and as GPR55 is involved in their differentiation, its targeting might be instrument ...

[4] = test system: osteoclasts derived from RAW264.7 cells; test: Osteoclast functional assay (bone resorption on bovine cortical bone slices); assay type: cell-based, murine; conditions: 0.5 µM CID16020046, 15 ng/mL RANKL, 7 days
Procedure: RAW264.7 cells were plated in differentiation medium at a density of 1250 cells/100 µL on 0.2-mm-thick bovine cortical bone slices (BoneSlices.com, Jelling, Denmark) in 96-well plates. Six hours later, 100 µL differentiation medium with RANKL (15 ng/mL, final concentration) was added, in the presence of a carrier or in combination with the GPR55 modulators. The media with the different compounds were replaced every 48 h, for a total of 7 days. At the end of this period, the cells were detached with a 10% bleach solution, and the resorption excavations were visualised by using Toluidine Blue staining (Sigma-Aldrich). Images of the resorption areas were obtained under the microscope (SW380T; Swift Optical Instruments, Inc., TX, USA) using the 10 × objective, and acquired with a digital camera (Swiftcam SC1003; Swift Optical Instruments, Inc.). The total eroded surface underwent blinded quantification using ImageJ (NIH), and was subdivided into pit and trench surfaces. Pits were characterised as round excavations with well-defined edges where the ratio between length and width was < 2.0. Trenches were defined as elongated excavations with well-defined edges whose length was at least twice the wide, and with clear signs of continued resorption. The prevalence of trenches was calculated as a proportion (%) of the trench surface relative to the total eroded surface.

GPR55 = conditions: ref [55]; cited from earlier work
Procedure: GPR55 involvement in osteoclast functions was directly assessed using in-vitro assays of bone resorbing activity. As the transient silencing by GPR55-specific siRNAs in precursor cells was not applicable to this long-term differentiation assay, pharmacological perturbation of GPR55 was carried out with only the most specific antagonists (ML-191, CID16020046) and LPI. RAW264.7 cells were plated on cortical bone slices and RANKL-differentiated for 7 days in the absence or presence of the different GPR55 regulators. At the end of the differentiation, the cells were detached and the resorbing area ...

[5] = 150 nM (0.2 µg/mL) peptide, 15 ng/mL RANKL, three independent experiments

Compound	effect on RANKL-induced osteoclast syncytium formation, peptide (RAW264.7 cells [1])	inhibition of GPR55-dependent proliferation [2]	inhibition of GPR55-dependent proliferation ([2]; listed as Peptide-P1)	regulation of wild-type and GPR55-K80A mutant internalisation (ssGPR55-K80A)	inhibition of osteoclast maturation (five differentiation markers) (RAW264.7 cells [3]; 150 nM (0.2 µg/mL) peptide, 15 ng/mL RANKL)	reduction of RANKL-induced Cathepsin-k mRNA by peptide (RAW264.7 cells [3]; [5])	reduction of RANKL-induced Ctr mRNA by peptide (RAW264.7 cells [3]; [5])	reduction of RANKL-induced Mmp-9 mRNA by peptide (RAW264.7 cells [3]; [5])	reduction of RANKL-induced Nfatc1 mRNA by peptide (RAW264.7 cells [3]; [5])	reduction of RANKL-induced Trap mRNA by peptide (RAW264.7 cells [3]; [5])	competition with LPI action (human GPR55)	human GPR55 internalisation (human GPR55)	inhibition of RANKL-promoted osteoclast degrading activity [4]	reduction of relative trench contribution compared to RANKL ([4]; p < 0.05)	reduction of LPI-stimulated Ctr transcription (RAW264.7 cells [3]; RANKL 15 ng/mL, 1 µM soybean LPI, 0.5 µM CID16020046)	block of LPI-stimulated Nfatc1 transcription (RAW264.7 cells [3]; RANKL 15 ng/mL, 1 µM soybean LPI, 0.5 µM ML-191 or 0.5 µM CID16020046)	mode of action on GPR55 (GPR55)
CKKNSPTLC (disulfide 1-9 (inferred)) [peptide-P1]	did not have any significant effects	inhibited GPR55-dependent proliferation of two human B-lymphoblastoid cell lines	inhibit GPR55-dependent proliferation of EHEB and DeFew cells	comparable regulation of both wild-type and GPR55-K80A mutant internalisation	significant inhibition of osteoclast maturation	40%	35%	50%	30%	35%	did not compete with LPI action	inducing human GPR55 internalisation in a β-arrestin–independent manner					
Cc1ccc(-c2n[nH]c3c2C(c2cccc(O)c2)N(c2ccc(C(=O)O)cc2)C3=O)cc1 (centres unmarked) [CID16020046]													only slightly inhibited	about 30%	50%	completely blocked	GPR55 inverse agonist
